Data from PubChem BioAssay AID330 (DTP/NCI, 2004).
Values joined by “and” are separate entries in the source; they are usually repeats but may differ in a detail not shown here. Equal entries are not always repeated. Toxic doses and inconclusive results are not listed.

Tested on: P388 leukemia ip, CD2F1 mice, survival T/C
Experiment: NCI In Vivo Anticancer Drug Screen. Data for tumor model P388 Leukemia (intraperitoneal) in CD2F1 (CDF1) mice
Settings: endpoint: median survival time, higher = longer survival
How it was run: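 Mice carrying the transplanted tumor received test compound or vehicle. Survival was recorded in each group, and the value is the treated-group measurement divided by that of the vehicle-treated control group.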

[1] = dose: 50.0 mg/kg/injection, schedule: Q01DX005 (ip), vehicle: Klucel (hydroxypropylcellulose) (HPC)
[2] = dose: 100.0 mg/kg/injection, schedule: Q01DX005 (ip), vehicle: Klucel (hydroxypropylcellulose) (HPC)
[3] = dose: 200.0 mg/kg/injection, schedule: Q01DX005 (ip), vehicle: Klucel (hydroxypropylcellulose) (HPC)
[4] = dose: 60.0 mg/kg/injection, schedule: Q01DX005 (ip), vehicle: Klucel (hydroxypropylcellulose) (HPC)
[5] = dose: 120.0 mg/kg/injection, schedule: Q01DX005 (ip), vehicle: Klucel (hydroxypropylcellulose) (HPC)
[6] = dose: 240.0 mg/kg/injection, schedule: Q01DX005 (ip), vehicle: Klucel (hydroxypropylcellulose) (HPC)
[7] = dose: 25.0 mg/kg/injection, schedule: Q01DX009 (ip), vehicle: saline with Tween-80
[8] = dose: 50.0 mg/kg/injection, schedule: Q01DX009 (ip), vehicle: saline with Tween-80
[9] = dose: 100.0 mg/kg/injection, schedule: Q01DX009 (ip), vehicle: saline with Tween-80
[10] = dose: 12.5 mg/kg/injection, schedule: Q01DX005 (ip), vehicle: Klucel (hydroxypropylcellulose) (HPC)
[11] = dose: 25.0 mg/kg/injection, schedule: Q01DX005 (ip), vehicle: Klucel (hydroxypropylcellulose) (HPC)
[12] = dose: 50.0 mg/kg/injection, schedule: Q01DX009 (ip), vehicle: Klucel (hydroxypropylcellulose) (HPC)
[13] = dose: 100.0 mg/kg/injection, schedule: Q01DX009 (ip), vehicle: Klucel (hydroxypropylcellulose) (HPC)
[14] = dose: 200.0 mg/kg/injection, schedule: Q01DX009 (ip), vehicle: Klucel (hydroxypropylcellulose) (HPC)
[15] = dose: 50.0 mg/kg/injection, schedule: Q01DX005 (ip), vehicle: saline with Tween-80
[16] = dose: 200.0 mg/kg/injection, schedule: Q01DX009 (ip), vehicle: saline with Tween-80

## NC(CSC(c1ccccc1)c1ccccc1)C(=O)NCC(=O)O (stereo not drawn)
[1]
  T/C: 99 % of control
[2]
  T/C: 99 % of control
[3]
  T/C: 104 % of control

## CN(C)CCCNc1nc2ccccc2c2ccnn12
dose: 5.5 mg/kg/injection, schedule: Q01DX009 (ip), vehicle: saline
  T/C: 109 % of control
dose: 11.0 mg/kg/injection, schedule: Q01DX009 (ip), vehicle: saline
  T/C: 100 % of control
dose: 22.0 mg/kg/injection, schedule: Q01DX009 (ip), vehicle: saline
  T/C: 100 % of control

## S=C(NCc1ccccc1)N1CCC(CCCC2CCN(C(=S)NCc3ccccc3)CC2)CC1
[4]
  T/C: 92 % of control
[5]
  T/C: 91 % of control
[6]
  T/C: 88 % of control

## Cc1cc(N(CCOS(C)(=O)=O)CCOS(C)(=O)=O)ccc1C=Nc1ccc(-c2csc(-c3ccc(Br)cc3)n2)cc1
[7]
  T/C: 180 % of control
[8]
  T/C: 209 % of control
[9]
  T/C: 98 % of control and 90 % of control

## CC(C)C1NC(=O)C2=CN(Cc3ccccc3)C=CC2NC(=O)C(C(C)C)NC(=O)C2=CN(Cc3ccccc3)C=CC2NC1=O (stereo not drawn)
dose: 60.0 mg/kg/injection, schedule: Q01DX005 (ip), vehicle: saline with Tween-80
  T/C: 94 % of control
dose: 120.0 mg/kg/injection, schedule: Q01DX005 (ip), vehicle: saline with Tween-80
  T/C: 100 % of control
dose: 240.0 mg/kg/injection, schedule: Q01DX005 (ip), vehicle: saline with Tween-80
  T/C: 97 % of control

## O=[N+]([O-])c1ccc([Se]CCBr)c([N+](=O)[O-])c1
dose: 100.0 mg/kg/injection, schedule: Q04DX003 (ip), vehicle: Klucel (hydroxypropylcellulose) (HPC)
  T/C: 101 % of control
dose: 200.0 mg/kg/injection, schedule: Q04DX003 (ip), vehicle: Klucel (hydroxypropylcellulose) (HPC)
  T/C: 101 % of control

## CC1(C)SC(C(NC(=O)COc2ccccc2)C(=O)O)NC1C(=O)O (stereo not drawn)
dose: 50.0 mg/kg/injection, schedule: Q04DX003 (ip), vehicle: saline with Tween-80
  T/C: 90 % of control
dose: 100.0 mg/kg/injection, schedule: Q04DX003 (ip), vehicle: saline with Tween-80
  T/C: 95 % of control
dose: 200.0 mg/kg/injection, schedule: Q04DX003 (ip), vehicle: saline with Tween-80
  T/C: 95 % of control

## CCN(CC)CC.[CH-]1CCCCC1.[CH-]1CCCCC1.[CH-]1CCCCC1.[Cl-].[N-]=C=NC(=O)NC1CCCCC1.[Sn+4]
dose: 1.5 mg/kg/injection, schedule: Q01DX005 (ip), vehicle: Klucel (hydroxypropylcellulose) (HPC)
  T/C: 92 % of control
dose: 3.0 mg/kg/injection, schedule: Q01DX005 (ip), vehicle: Klucel (hydroxypropylcellulose) (HPC)
  T/C: 92 % of control
dose: 6.0 mg/kg/injection, schedule: Q01DX005 (ip), vehicle: Klucel (hydroxypropylcellulose) (HPC)
  T/C: 102 % of control and 92 % of control

## Cc1cn(CCCOc2c3occc3cc3ccc(=O)oc23)c(=O)[nH]c1=O
[10]
  T/C: 86 % of control
[11]
  T/C: 96 % of control
[1]
  T/C: 88 % of control

## Clc1ccc(N=Cc2ccc(C=Nc3ccc(Cl)cn3)cc2)nc1
[12]
  T/C: 91 % of control
[13]
  T/C: 94 % of control
[14]
  T/C: 93 % of control

## CCOP(=O)(CS(=O)CCC1(C)NC(=O)NC1=O)OCC (stereo not drawn)
dose: 50.0 mg/kg/injection, schedule: Q01DX005 (ip), vehicle: saline
  T/C: 100 % of control
dose: 100.0 mg/kg/injection, schedule: Q01DX005 (ip), vehicle: saline
  T/C: 101 % of control
dose: 200.0 mg/kg/injection, schedule: Q01DX005 (ip), vehicle: saline
  T/C: 103 % of control

## O=C(O)c1ccccc1Nc1c(C(=O)O)cnc2cc3c(cc12)OCO3
[4]
  T/C: 101 % of control
[5]
  T/C: 99 % of control
[6]
  T/C: 88 % of control

## CC(C)NC(=O)OCc1c(COC(=O)NC(C)C)c(-c2ccc(Cl)c(Cl)c2)n2c1CS(=O)(=O)C2
dose: 6.25 mg/kg/injection, schedule: Q01DX005 (ip), vehicle: saline with Tween-80
  T/C: 101 % of control
dose: 12.5 mg/kg/injection, schedule: Q01DX005 (ip), vehicle: saline with Tween-80
  T/C: 100 % of control and 87 % of control
[15]
  T/C: 86 % of control

## O=C(N=Nc1c(Cl)c(O)c2ccccc2c1O)c1ccccc1O
dose: 6.25 mg/kg/injection, schedule: Q01DX009 (ip), vehicle: saline with Tween-80
  T/C: 100 % of control
dose: 12.5 mg/kg/injection, schedule: Q01DX009 (ip), vehicle: saline with Tween-80
  T/C: 108 % of control
[7]
  T/C: 106 % of control
[8]
  T/C: 104 % of control and 115 % of control

## O=C1NCCc2ccc(cc2)OC2CCNC2C(=O)N2CCCC12 (stereo not drawn)
[10]
  T/C: 96 % of control
[11]
  T/C: 107 % of control
[1]
  T/C: 100 % of control

## CCOC(=O)c1c(C)c2c(n1C)CCc1c-2nc(N)[nH]c1=O
[12]
  T/C: 97 % of control
[13]
  T/C: 97 % of control
[14]
  T/C: 88 % of control

## CN(C)C1=NN(Cc2ccccc2)C(=O)C1
dose: 50.0 mg/kg/injection, schedule: Q01DX009 (ip), vehicle: saline
  T/C: 105 % of control
dose: 100.0 mg/kg/injection, schedule: Q01DX009 (ip), vehicle: saline
  T/C: 103 % of control
dose: 200.0 mg/kg/injection, schedule: Q01DX009 (ip), vehicle: saline
  T/C: 96 % of control

## O=C1c2ccccc2Cc2c(NCc3ccccc3)ncnc2N1Cc1ccccc1
[8]
  T/C: 104 % of control
[9]
  T/C: 101 % of control
[16]
  T/C: 90 % of control

## CCCCCCCCCCC(CCCCCC)C(=O)O (stereo not drawn)
dose: 75.0 mg/kg/injection, schedule: Q01DX001 (ip), vehicle: saline with Tween-80
  T/C: 104 % of control
dose: 150.0 mg/kg/injection, schedule: Q01DX001 (ip), vehicle: saline with Tween-80
  T/C: 104 % of control
dose: 300.0 mg/kg/injection, schedule: Q01DX001 (ip), vehicle: saline with Tween-80
  T/C: 100 % of control

## CC1C(c2ccccc2)NC(c2ccccc2)C(C)C1O (stereo not drawn)
[1]
  T/C: 101 % of control
[2]
  T/C: 98 % of control
[3]
  T/C: 105 % of control

## COc1cccc2c1C(=O)c1c(O)c3c(c(O)c1C2=O)C[C@@](O)(C(=O)COc1ccccc1)C[C@@H]3OC1CC(N)C(O)C(C)O1 (stereo partly drawn)
dose: 1.56 mg/kg/injection, schedule: Q01DX009 (ip), vehicle: water
  T/C: 151 % of control and 169 % of control
dose: 3.13 mg/kg/injection, schedule: Q01DX009 (ip), vehicle: water
  T/C: 155 % of control and 179 % of control
dose: 6.25 mg/kg/injection, schedule: Q01DX009 (ip), vehicle: water
  T/C: 174 % of control and 186 % of control
dose: 12.5 mg/kg/injection, schedule: Q01DX009 (ip), vehicle: water
  T/C: 176 % of control and 179 % of control

## CN(C(=O)c1cc2c(cc1Br)OCO2)c1ccccc1
dose: 25.0 mg/kg/injection, schedule: Q01DX009 (ip), vehicle: other
  T/C: 100 % of control
dose: 50.0 mg/kg/injection, schedule: Q01DX009 (ip), vehicle: other
  T/C: 98 % of control
dose: 100.0 mg/kg/injection, schedule: Q01DX009 (ip), vehicle: other
  T/C: 111 % of control

## COc1cc2c(cc1O)C(CSC)Cc1cc(OC)c(OC)cc1N(C)CC2 (stereo not drawn)
[8]
  T/C: 104 % of control
[9]
  T/C: 101 % of control
[16]
  T/C: 109 % of control

## O=Cc1ccc(C=O)cc1
dose: 100.0 mg/kg/injection, schedule: Q04DX002 (ip), vehicle: saline with Tween-80
  T/C: 98 % of control
dose: 200.0 mg/kg/injection, schedule: Q04DX002 (ip), vehicle: saline with Tween-80
  T/C: 102 % of control
dose: 400.0 mg/kg/injection, schedule: Q04DX002 (ip), vehicle: saline with Tween-80
  T/C: 102 % of control

## COC1/C=C/OC2(C)Oc3c(C)c(O)c4c(O)c(c(/C=N/N5C(C)CN(Cc6ccc(C(C)(C)C)cc6)CC5C)c(O)c4c3C2=O)NC(=O)/C(C)=C\C=C\C(C)C(O)C(C)C(O)C(C)C(OC(C)=O)C1C (stereo not drawn)
[7]
  T/C: 119 % of control
dose: 25.0 mg/kg/injection, schedule: Q01DX009 (ip), vehicle: suspension in saline
  T/C: 104 % of control
[8]
  T/C: 102 % of control and 94 % of control
dose: 50.0 mg/kg/injection, schedule: Q01DX009 (ip), vehicle: suspension in saline
  T/C: 108 % of control
[9]
  T/C: 119 % of control
dose: 100.0 mg/kg/injection, schedule: Q01DX009 (ip), vehicle: suspension in saline
  T/C: 100 % of control
dose: 200.0 mg/kg/injection, schedule: Q01DX009 (ip), vehicle: suspension in saline
  T/C: 95 % of control

## C/C(=N\NC(=S)Nc1nccs1)c1nccc2ccccc12
[15]
  T/C: 100 % of control
dose: 100.0 mg/kg/injection, schedule: Q01DX005 (ip), vehicle: saline with Tween-80
  T/C: 114 % of control
dose: 200.0 mg/kg/injection, schedule: Q01DX005 (ip), vehicle: saline with Tween-80
  T/C: 122 % of control
